The source of these data is patent US12264173B2 (GILEAD SCIENCES, INC., priority 2020, dated 2025).

One experiment has as its system RSV A2. Put plainly: RSV NHBE EC50 (RSV A2 antiviral assay in NHBE cells). Format: cell-based. As to conditions: read-out: RSV NHBE EC50. Here is the method: Normal human bronchial epithelial (NHBE) cells were purchased from Lonza (Walkersville, MD, Cat #CC-2540) and cultured in Bronchial Epithelial Growth Media (BEGM) (Lonza, Walkersville, MD, Cat #CC-3170). The cells were passaged 1-2 times per week to maintain <80% confluency. The NHBE cells were discarded after 6 passages in culture.
To conduct the RSV A2 antiviral assay, NHBE cells were plated in 96-well plates at a density of 7,500 cells per well in BEGM and allowed to attach overnight at 37° C. Following attachment, 100 μL of cell culture media was removed and 3-fold serially diluted compound was added using a Hewlett-Packard D300 Digital Dispenser. The final concentration of DMSO was normalized to 0.05%. Following compound addition, the NHBE cells were infected by the addition of 100 μL of RSV A2 at a titer of 1×10^4.5 tissue culture infectious doses/mL in BEGM and then incubated at 37° C. for 4 days. The NHBE cells were then allowed to equilibrate to 25° C. and cell viability was determined by removing 100 μL of culture medium and adding 100 μL of Cell-Titer Glo viability reagent. The mixtures were incubated for 10 minutes at 25° C., and the luminescence signal was quantified on an Envision luminescence plate reader.

Another experiment relates to RSV strain A2. The experiment can be described thus: microbe, parasite or virus in culture. As to conditions: read-out: RSV HEp-2 EC50. Format: cell-based. Here is the method: Antiviral activity against RSV is determined using an infectious cytopathic cell protection assay in HEp-2 cells. In this assay, compounds inhibiting viral infection and/or replication produce a cytoprotective effect against the virus-induced cell killing that can be quantified using a cell viability reagent. The techniques used here are novel adaptations of methods described in published literature (Chapman et al., Antimicrob Agents Chemother. 2007, 51(9):3346-53.).
HEp-2 cells are obtained from ATCC (Manassas, VI) and maintained in MEM media supplemented with 10% fetal bovine serum and penicillin/streptomycin. Cells are passaged twice a week and kept at subconfluent stage. Commercial stock of RSV strain A2 (Advanced Biotechnologies, Columbia, MD) is titered before compound testing to determine the appropriate dilution of the virus stock that generates desirable cytopathic effect in HEp-2 cells.
For antiviral tests, HEp-2 cells are grown in large cell culture flasks to near confluency but not fully so. The compounds to be tested are prediluted in DMSO in 384-well compound dilution plates, either in an 8 or 40 sample per plate standardized dose response format. 3-fold serial dilution increments of each test compound are prepared in the plates and test samples are transferred via acoustic transfer apparatus (Echo, Labcyte) at 100 nL per well into cell culture assay 384-well plates. Each compound dilution is transferred in single or quadruplicate samples into dry assay plates, which are stored until assay is ready to go. The positive and negative controls are laid out in opposite on ends of the plate in vertical blocks (1 column).
Subsequently, an infectious mixture is prepared using an appropriate dilution of virus stock previously determined by titration with cells at a density of 50,000/mL and 20 µL/well is added to test plates w/compounds via automation (uFlow, Biotek). Each plate includes negative and positive controls (16 replicates each) to create 0% and 100% virus inhibition standards, respectively. Following the infection with RSV, testing plates are incubated for 4 days in a 37° C. cell culture incubator. After the incubation, a cell viability reagent, Cell TiterGlo (Promega, Madison, WI) is added to the assay plates, which are incubated briefly, and a luminescent readout is measured (Envision, Perkin Elmer) in all the assay plates. The RSV-induced cytopathic effect, percentage inhibition, is determined from the levels of remaining cell viability. […] Various potent anti-RSV tool compounds are used as positive controls for antiviral activity.

Where [1] appears, read: human respiratory syncytial virus, NHBE, 96 h, Table 3, NHBE cells, RSV A2, 4 days.
Where [2] appears, read: human respiratory syncytial virus, HEp-2, 96 h, Table 3, HEp-2 cells, RSV A2, 4 days.
The mark [3] stands for this setting: Table 3, NHBE cells, RSV A2, 4 days.
The mark [4] stands for this setting: Table 3, HEp-2 cells, RSV A2, 4 days.

Molecules are shown by their SMILES. pEC50: −log10 of the molar value. Read-outs that look alike come from different tables or passages of the source.

Turning to `CCCCOC(=O)[C@H](C)NP(=O)(OC[C@@]1(C#N)O[C@@H](c2ccc3c(N)ncnn23)[C@H](OC(=O)C(C)C)[C@@H]1OC(=O)C(C)C)Oc1ccccc1` (mixture of isomers) [Example 225, (2R,3S,4S,5S)-5-(4-aminopyrrolo[2,1-f][1,2,4]triazin-7-yl)-2-((((((S)-1-butoxy-1-oxopropan-2-yl)amino)(phenoxy)phosphoryl)oxy)methyl)-2-cyanotetrahydrofuran-3,4-diyl bis(2-methylpropanoate)], the pEC50 with RSV A2 (setting [1]) is 7.85.

For `CCOC(=O)[C@H](C)NP(=O)(OC[C@@]1(C#N)O[C@@H](c2ccc3c(N)ncnn23)[C@H](OC(=O)C(C)C)[C@@H]1OC(=O)C(C)C)Oc1ccccc1` (mixture of isomers) [Example 248, (2R,3S,4S,5S)-5-(4-aminopyrrolo[2,1-f][1,2,4]triazin-7-yl)-2-cyano-2-((((((S)-1-ethoxy-1-oxopropan-2-yl)amino)(phenoxy)phosphoryl)oxy)methyl)tetrahydrofuran-3,4-diyl bis(2-methylpropanoate)], in the experiment on RSV strain A2 (setting [2]), the pEC50 was 7.64.

Regarding `CCCCOC(=O)C(C)NP(=O)(OCC1(C#N)OC(c2ccc3c(N)ncnn23)C(OC(=O)C(C)C)C1OC(=O)C(C)C)Oc1ccccc1` (single isomer, unassigned) [Example 226], the negative logarithm of the EC50 (pEC50) in the experiment on RSV A2 (setting [3]) and in the experiment with RSV strain A2 (setting [4]) was 8.05 each time.

As to `CCCCOC(=O)C(C)NP(=O)(OCC1(C#N)OC(c2ccc3c(N)ncnn23)C(OC(=O)C(C)C)C1OC(=O)C(C)C)Oc1ccccc1` (single isomer, unassigned) [Example 227], the negative-log EC50 (pEC50) with RSV A2 (setting [3]) was 7.92; with RSV strain A2 (setting [4]), 7.77.

In the case of `CC(C)C(=O)OC1C(c2ccc3c(N)ncnn23)OC(C#N)(COP(=O)(NC(C)C(=O)OC2CCN(C)C2)Oc2ccccc2)C1OC(=O)C(C)C` (single isomer, unassigned) [Example 233], the pEC50 with RSV A2 (setting [3]) was 7.54; in the experiment on RSV strain A2 (setting [4]) it was 6.90.

`CC(C)C(=O)O[C@H]1[C@H](c2ccc3c(N)ncnn23)O[C@](C#N)(COP(=O)(N[C@@H](C)C(=O)O[C@@H]2CCOC2)Oc2ccccc2)[C@H]1OC(=O)C(C)C` (single isomer, unassigned) [Example 243]: the pEC50 in the experiment with RSV A2 (setting [1]) was 7.96; in the experiment on RSV strain A2 (setting [4]), 7.82.

`CC(C)C(=O)O[C@H]1[C@H](c2ccc3c(N)ncnn23)O[C@](C#N)(COP(=O)(N[C@@H](C)C(=O)O[C@@H]2CCOC2)Oc2ccccc2)[C@H]1OC(=O)C(C)C` (single isomer, unassigned) [Example 244]: the pEC50 was 7.68 with RSV A2 (setting [3]) and 7.20 in the experiment with RSV strain A2 (setting [4]).

For the compound `CCOC(=O)[C@H](C)N[P@@](=O)(OC[C@@]1(C#N)O[C@@H](c2ccc3c(N)ncnn23)[C@H](OC(=O)C(C)C)[C@@H]1OC(=O)C(C)C)Oc1ccccc1` (single isomer, unassigned) [Example 249], the pEC50 in the experiment with RSV A2 (setting [1]) was 7.62; in the experiment on RSV strain A2 (setting [2]), 7.33.

As for `CCOCCOCCOC(=O)[C@H](C)NP(=O)(OC[C@@]1(C#N)O[C@@H](c2ccc3c(N)ncnn23)[C@H](OC(=O)C(C)C)[C@@H]1OC(=O)C(C)C)Oc1ccccc1` (single isomer, unassigned) [Example 263], in the experiment on RSV strain A2 (setting [2]), the pEC50 was 7.64.

`CCC(=O)OC1[C@H](c2ccc3c(N)ncnn23)O[C@](C#N)(COP(=O)(N[C@@H](C)C(=O)OCC2CC2)Oc2ccccc2)[C@H]1OC(=O)CC` (stereo in doubt) [Example 98, (2R,3S,4R,5S)-5-(4-aminopyrrolo[2,1-f][1,2,4]triazin-7-yl)-2-cyano-2-((((((S)-1-(cyclopropylmethoxy)-1-oxopropan-2-yl)amino)(phenoxy)phosphoryl)oxy)methyl) tetrahydrofuran-3,4-diyl dipropionate]: the negative-log EC50 (pEC50) with RSV A2 (setting [1]) is 7.77; with RSV strain A2 (setting [2]) it was 7.32.

Regarding `CC(=O)O[C@H]1[C@H](c2ccc3c(N)ncnn23)O[C@](C#N)(CO[P@@](=O)(N[C@@H](C)C(=O)OC2CCCCC2)Oc2ccccc2)[C@H]1OC(C)=O` [Example 81, (2R,3S,4S,5S)-5-(4-aminopyrrolo[2,1-f][1,2,4]triazin-7-yl)-2-cyano-2-((((S)-(((S)-1-(cyclohexyloxy)-1-oxopropan-2-yl)amino)(phenoxy)phosphoryl)oxy)methyl) tetrahydrofuran-3,4-diyl diacetate], the pEC50 is 7.66 with RSV A2 (setting [1]) and 6.71 in the experiment on RSV strain A2 (setting [2]).

Consider `CCOC(=O)[C@H](C)NP(=O)(N[C@@H](C)C(=O)OCC)OC[C@@]1(C#N)O[C@@H](c2ccc3c(NC(=O)C(C)C)ncnn23)[C@H](OC(=O)C(C)C)[C@@H]1OC(=O)C(C)C` [Example 145, ((2R,3S,4R,5S)-5-(4-isobutyramidopyrrolo[2,1-f][1,2,4]triazin-7-yl)-2-cyano-3,4-diisobutylatetetrahydrofuran-2-yl)methyl bis-ethyl L-alaninate phosphate], for which, in the experiment with RSV A2 (setting [1]), the pEC50 was 7.40.

For the compound `CC(C)C(=O)O[C@H]1[C@H](c2ccc3c(N)ncnn23)O[C@](C#N)(COP(=O)(N[C@@H](C)C(=O)OCCN2CCOCC2)Oc2ccccc2)[C@H]1OC(=O)C(C)C` (stereo partly drawn) [Example 223, (2R,3S,4S,5S)-5-(4-aminopyrrolo[2,1-f][1,2,4]triazin-7-yl)-2-cyano-2-((((((S)-1-(2-morpholinoethoxy)-1-oxopropan-2-yl)amino)(phenoxy)phosphoryl)oxy)methyl) tetrahydrofuran-3,4-diyl bis(2-methylpropanoate)], the negative logarithm of the EC50 (pEC50) is 6.65 in the experiment on RSV A2 (setting [1]) and 5.76 in the experiment on RSV strain A2 (setting [2]).

For the compound `COC(=O)[C@H](C)NP(=O)(O)OC[C@@]1(C#N)O[C@@H](c2ccc3c(N)ncnn23)[C@H](OC(=O)C(C)C)[C@@H]1OC(=O)C(C)C` [Example 242, ((2R,3S,4S,5S)-5-(4-aminopyrrolo[2,1-f][1,2,4]triazin-7-yl)-2-cyano-3,4-bis(isobutyryloxy)tetrahydrofuran-2-yl)methyl ((S)-1-methoxy-1-oxopropan-2-yl)phosphoramidate], the pEC50 is less than 5.30 in the experiment on RSV A2 (setting [1]) and 5.14 in the experiment on RSV strain A2 (setting [2]).

`COC(=O)[C@H](C)NP(=S)(OC[C@@]1(C#N)O[C@@H](c2ccc3c(N)ncnn23)[C@H](OC(=O)C(C)C)[C@@H]1OC(=O)C(C)C)Oc1ccccc1` (stereo partly drawn) [Example 250, (2R,3S,4S,5S)-5-(4-aminopyrrolo[2,1-f][1,2,4]triazin-7-yl)-2-cyano-2-((((((S)-1-methoxy-1-oxopropan-2-yl)amino)(phenoxy)phosphorothioyl)oxy)methyl) tetrahydrofuran-3,4-diyl bis(2-methylpropanoate)]: the pEC50 in the experiment on RSV A2 (human respiratory syncytial virus, NHBE, 96 h) was 5.62; in the experiment with RSV strain A2 (human respiratory syncytial virus, HEp-2, 96 h) it was 5.41.

For `CC(C)C(=O)O[C@H]1[C@H](c2ccc3c(N)ncnn23)O[C@](C#N)(COP(=O)(N[C@@H](C)C(=O)OCC(C)(C)O)Oc2ccccc2)[C@H]1OC(=O)C(C)C` (stereo partly drawn) [Example 256, (2R,3S,4S,5S)-5-(4-aminopyrrolo[2,1-f][1,2,4]triazin-7-yl)-2-cyano-2-((((((S)-1-(2-hydroxy-2-methylpropoxy)-1-oxopropan-2-yl)amino)(phenoxy)phosphoryl)oxy)methyl)tetrahydrofuran-3,4-diyl bis(2-methylpropanoate)], in the experiment with RSV A2 (setting [1]), the pEC50 was 7.70.

With `CC(C)C(=O)O[C@H]1[C@H](c2ccc3c(N)ncnn23)O[C@](C#N)(COP(=O)(N[C@@H](C)C(=O)OCC(C)(C)OP(=O)(O)O)Oc2ccccc2)[C@H]1OC(=O)C(C)C` (stereo partly drawn) [Example 262, (2R,3S,4S,5S)-5-(4-aminopyrrolo[2,1-f][1,2,4]triazin-7-yl)-2-cyano-2-((((((S)-1-(2-methyl-2-(phosphonooxy)propoxy)-1-oxopropan-2-yl)amino)(phenoxy)phosphoryl)oxy)methyl)tetrahydrofuran-3,4-diyl bis(2-methylpropanoate)], the pEC50 in the experiment on RSV strain A2 (setting [2]) was 6.79.

What is called pEC50 is the negative decadic logarithm of the EC50, by convention in mol/L.
